In ChEMBL document CHEMBL1156257, “Antibacterial effect of some benzopyrone derivatives” (2010):

Experiments:
Format in all cases: functional
[1] = system: Staphylococcus capitis; assay: Antibacterial activity against Staphylococcus capitis ATCC 2784 assessed as decrease in survival at 50 x 10^-6 M by turbidimetric method
[2] = system: Escherichia coli; assay: Antibacterial activity against Escherichia coli XL-1 blue assessed as decrease in survival at 50 x 10^-6 M by turbidimetric method
[3] = system: Staphylococcus capitis; assay: Antibacterial activity against Staphylococcus capitis ATCC 2784 assessed as decrease in survival at 0.5 M by turbidimetric method
[4] = system: Staphylococcus capitis; assay: Antibacterial activity against Staphylococcus capitis ATCC 2784 assessed as decrease in survival at 1.3 M by turbidimetric method

Compound | Activity [1] | Activity [2] | Activity [3] | Activity [4]
Cc1cc(=O)c2c(O)c(/C=N/CCC/N=C/c3c(O)cc4oc(C)cc(=O)c4c3O)c(O)cc2o1 | 70% | 35% |  | 
COc1c(/C=N/CC/N=C/c2c(O)cc3oc(C)cc(=O)c3c2OC)c(O)cc2oc(C)cc(=O)c12 | 40% | 54% |  | 
COc1c(/C=N/CCC/N=C/c2c(O)cc3oc(C)cc(=O)c3c2OC)c(O)cc2oc(C)cc(=O)c12 | 55% | 30% |  | 
Cc1cc(=O)c2c(O)c(/C=N/CC/N=C/c3c(O)cc4oc(C)cc(=O)c4c3O)c(O)cc2o1 | 50% | 60% |  | 
CN(C)C=O [DIMETHYLFORMAMIDE] |  |  | 10% | 80%
